Measurements: the supplement of paper PMC13207355

Assays:
Details in all cases: exposure time: 72 h
[1] = system: E34 (patient-derived glioblastoma stem cells of proneural subtype); experiment: phenotypic distance (Euclidean, principal components) from DMSO controls (arbitrary units); higher = stronger morphological change
[2] = system: E21 (patient-derived glioblastoma stem cells of mesenchymal subtype); experiment: as above
[3] = system: FT3469 (normal neural stem cell line); experiment: as above
[4] = system: E57 (patient-derived glioblastoma stem cells of mesenchymal subtype); experiment: as above
[5] = system: E31 (patient-derived glioblastoma stem cells of proneural subtype); experiment: as above
[6] = system: E13 (patient-derived glioblastoma stem cells of classical subtype); experiment: as above
[7] = system: E28 (patient-derived glioblastoma stem cells of classical subtype); experiment: as above
[8] = system: E34; experiment: surviving fraction (nuclei count normalised to DMSO); higher = more cells surviving (less toxic)
[9] = system: E21; experiment: as above
[10] = system: FT3469; experiment: as above
[11] = system: E57; experiment: as above
[12] = system: E31; experiment: as above
[13] = system: E13; experiment: as above
[14] = system: E28; experiment: as above
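Throughout, for phenotypic distance (Euclidean, principal components) from DMSO controls: cell Painting imaging in 384-well plates, CellProfiler features reduced to at least 20 principal components, Euclidean distance versus same-plate DMSO vehicle wells (0.1% v/v), median over six images per well.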
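Throughout, for surviving fraction (nuclei count normalised to DMSO): nuclei counted by high-content imaging of Hoechst-stained cells in laminin-coated 384-well plates, relative to 0.1% DMSO vehicle wells, with staurosporine as cell-death control.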

CC1(C)S[C@@H]2[C@H](NC(=O)Cc3ccccc3)C(=O)N2[C@H]1C(=O)O [Benzylpenicillin sodium]
Details | phenotypic distance | surviving fraction
[1], 4.1 nM | 0.752 | –
[1], 12.3 nM | 0.424 | –
[1], 37 nM | 0.561 | –
[1], 111.1 nM | 0.473 | –
[1], 333.3 nM | 0.826 | –
[1], 1000 nM | 0.717 | –
[1], 3000 nM | 1.48 | –
[2], 4.1 nM | 0.889 | –
[2], 12.3 nM | 0.821 | –
[2], 37 nM | 0.791 | –
[2], 111.1 nM | 0.688 | –
[2], 333.3 nM | 4.43 | –
[2], 1000 nM | 1.31 | –
[2], 3000 nM | 0.858 | –
[3], 4.1 nM | 0.569 | –
[3], 12.3 nM | 0.961 | –
[3], 37 nM | 1.12 | –
[3], 111.1 nM | 0.565 | –
[3], 333.3 nM | 0.741 | –
[3], 1000 nM | 0.951 | –
[3], 3000 nM | 1.77 | –
[4], 4.1 nM | 0.898 | –
[4], 12.3 nM | 0.449 | –
[4], 37 nM | 0.995 | –
[4], 111.1 nM | 0.845 | –
[4], 333.3 nM | 1.07 | –
[4], 1000 nM | 0.999 | –
[4], 3000 nM | 1.39 | –
[5], 4.1 nM | 0.966 | –
[5], 12.3 nM | 0.585 | –
[5], 37 nM | 0.478 | –
[5], 111.1 nM | 0.839 | –
[5], 333.3 nM | 1.16 | –
[5], 1000 nM | 0.685 | –
[5], 3000 nM | 1.21 | –
[6], 4.1 nM | 0.664 | –
[6], 12.3 nM | 1.03 | –
[6], 37 nM | 0.438 | –
[6], 111.1 nM | 0.926 | –
[6], 333.3 nM | 0.678 | –
[6], 1000 nM | 1.04 | –
[6], 3000 nM | 0.985 | –
[7], 4.1 nM | 0.78 | –
[7], 12.3 nM | 0.57 | –
[7], 37 nM | 0.958 | –
[7], 111.1 nM | 0.61 | –
[7], 333.3 nM | 0.635 | –
[7], 1000 nM | 0.605 | –
[7], 3000 nM | 1.19 | –
[8], 4.1 nM | – | 1.11
[8], 12.3 nM | – | 0.981
[8], 37 nM | – | 1.02
[8], 111.1 nM | – | 1.02
[8], 333.3 nM | – | 0.906
[8], 1000 nM | – | 0.865
[8], 3000 nM | – | 0.864
[9], 4.1 nM | – | 1.06
[9], 12.3 nM | – | 1.11
[9], 37 nM | – | 1.03
[9], 111.1 nM | – | 1.04
[9], 333.3 nM | – | 0.968
[9], 1000 nM | – | 1.14
[9], 3000 nM | – | 0.993
[10], 4.1 nM | – | 1.05
[10], 12.3 nM | – | 1.29
[10], 37 nM | – | 1.05
[10], 111.1 nM | – | 1.18
[10], 333.3 nM | – | 0.99
[10], 1000 nM | – | 1.27
[10], 3000 nM | – | 1.12
[11], 4.1 nM | – | 1.03
[11], 12.3 nM | – | 0.993
[11], 37 nM | – | 1
[11], 111.1 nM | – | 1.01
[11], 333.3 nM | – | 1.04
[11], 1000 nM | – | 0.87
[11], 3000 nM | – | 0.922
[12], 4.1 nM | – | 1.03
[12], 12.3 nM | – | 0.949
[12], 37 nM | – | 1.1
[12], 111.1 nM | – | 1.03
[12], 333.3 nM | – | 1.1
[12], 1000 nM | – | 0.947
[12], 3000 nM | – | 0.879
[13], 4.1 nM | – | 1.1
[13], 12.3 nM | – | 1.14
[13], 37 nM | – | 1.07
[13], 111.1 nM | – | 1.17
[13], 333.3 nM | – | 1.06
[13], 1000 nM | – | 1.06
[13], 3000 nM | – | 1.08
[14], 4.1 nM | – | 1.28
[14], 12.3 nM | – | 1.09
[14], 37 nM | – | 1.38
[14], 111.1 nM | – | 0.946
[14], 333.3 nM | – | 1.14
[14], 1000 nM | – | 1.12
[14], 3000 nM | – | 0.901
